Measured values as given in publication PMC9851200, “Multiparameter phenotypic screening for endogenous TFEB and TFE3 translocation identifies novel chemical series modulating lysosome function” (Autophagy, 2022).

Legend:
PRKD2 = molecular target: T1, PRKD2 (Homo sapiens, UniProt Q9BZL6); test: KiNativ in-cell kinase binding, PRKD2; set-up: endogenous in cells; host or cells: SH-SY5Y
T1 sequence (Q9BZL6 1-878): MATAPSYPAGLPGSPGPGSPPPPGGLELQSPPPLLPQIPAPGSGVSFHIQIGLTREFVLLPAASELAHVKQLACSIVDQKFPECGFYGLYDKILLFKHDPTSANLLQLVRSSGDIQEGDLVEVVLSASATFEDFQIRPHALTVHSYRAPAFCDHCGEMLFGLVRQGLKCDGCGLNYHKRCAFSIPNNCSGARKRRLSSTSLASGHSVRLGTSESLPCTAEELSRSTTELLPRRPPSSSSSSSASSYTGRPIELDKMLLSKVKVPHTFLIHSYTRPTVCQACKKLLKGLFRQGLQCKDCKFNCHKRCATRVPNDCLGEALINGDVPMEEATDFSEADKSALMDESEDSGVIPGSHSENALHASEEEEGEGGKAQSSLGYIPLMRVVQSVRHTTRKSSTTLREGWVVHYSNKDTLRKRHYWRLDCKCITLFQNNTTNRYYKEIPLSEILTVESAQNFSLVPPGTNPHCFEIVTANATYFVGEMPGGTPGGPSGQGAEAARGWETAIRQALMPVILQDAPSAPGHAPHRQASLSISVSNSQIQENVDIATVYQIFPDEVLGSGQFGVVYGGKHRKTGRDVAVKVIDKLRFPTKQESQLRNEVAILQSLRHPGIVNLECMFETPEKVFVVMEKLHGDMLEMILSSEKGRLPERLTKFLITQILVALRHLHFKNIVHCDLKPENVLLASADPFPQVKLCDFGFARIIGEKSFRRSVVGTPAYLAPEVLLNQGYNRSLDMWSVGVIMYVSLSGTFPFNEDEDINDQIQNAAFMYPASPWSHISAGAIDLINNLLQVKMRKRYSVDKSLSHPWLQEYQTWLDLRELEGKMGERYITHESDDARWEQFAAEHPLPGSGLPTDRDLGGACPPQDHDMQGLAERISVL
From the text: As KINOMEscan is an in vitro assay, and as different cell types have variable kinase expression profiles we sought to determine the kinase binding profile in our SH-SY5Y TFEB-relocalization cell model. […] Bound kinases were pulled down and analyzed by mass spectrometry to determine the in situ kinase binding profile for each compound.

GFP-Ex1HTT74Q = test: HTT aggregation assay, PC12 cells expressing GFP-Ex1HTT74Q; type: cell-based; conditions: 48 h, 16 nM - 2 µM
Protocol: PC12 cells stably expressing GFP-tagged exon 1 of HTT with a 74-repeat polyglutamine-expansion (GFP-Ex1HTT74Q) under tetracycline-inducible promoter control [41]were maintained at 37°C and 5% CO2 in RPMI medium (Sigma Aldrich, R8758) supplemented with 10% horse serum (Sigma Aldrich, H1138), 5% fetal bovine serum, 1% Glutamine (Sigma Aldrich, G7513), 1% Pen-Strep (Sigma, P0781), 0.1 mg/mL G418 (ThermoFisher, 10,131,035), and 0.07 mg/mL hygromycin B (ThermoFisher, 10,687,010). Cells were plated at a density of 10,000 per well in 96-well black cycloolefin thin-bottom plates (Perkin Elmer, 6,055,300) coated with collagen IV (Sigma Aldrich, C5533). After 5 h, expression of GFP-Ex1HttQ74 was induced with doxycycline (100 ng/mL; Sigma Aldrich, D3447). After 16 h of induction, compounds (final concentrations 16 nM – 2 µM) were added in fresh medium with doxycycline (100 ng/ml). Final concentration of DMSO (Sigma Aldrich, D8418) was 0.1% in all wells. After 48 h of incubation in the presence of compound, cells were washed once in PBS and fixed with 4% paraformaldehyde (Thermofisher Scientific, 28,908) supplemented with 10 µg/mL Hoechst 33,342 (ThermoFisher Scientific, H3570) for 15 min. […] Image feature extraction was carried out using CellProfiler software. Data aggregation, normalization and distance score calculations were carried out using StratoMineR software.

[1] = molecular target: kinases (KINOMEscan panel) (Homo sapiens, UniProt Q32MK0); type: binding
[2] = molecular target: kinases (KINOMEscan panel) (Homo sapiens, UniProt O94768); type: binding
[3] = molecular target: kinases (KINOMEscan panel) (Homo sapiens, UniProt Q9Y2H1); type: binding
[4] = molecular target: kinases (KINOMEscan panel) (Homo sapiens, UniProt P28482); type: binding
[5] = molecular target: kinases (KINOMEscan panel) (Homo sapiens, UniProt P42679); type: binding
[6] = molecular target: kinases (KINOMEscan panel) (Homo sapiens, UniProt P0C264); type: binding
[7] = molecular target: kinases (KINOMEscan panel) (Homo sapiens, UniProt O43283); type: binding
[8] = molecular target: kinases (KINOMEscan panel) (Homo sapiens, UniProt Q15208); type: binding
[9] = molecular target: kinases (KINOMEscan panel) (Homo sapiens, UniProt Q13188); type: binding
[10] = molecular target: kinases (KINOMEscan panel) (Homo sapiens, UniProt Q02750); type: binding
[11] = molecular target: kinases (KINOMEscan panel) (Homo sapiens, UniProt Q16288); type: binding
[12] = molecular target: kinases (KINOMEscan panel) (Homo sapiens, UniProt Q02763); type: binding
[13] = molecular target: kinases (KINOMEscan panel) (Homo sapiens, UniProt P23443); type: binding
[14] = molecular target: kinases (KINOMEscan panel) (Homo sapiens, UniProt P46734); type: binding
[15] = molecular target: kinases (KINOMEscan panel) (Homo sapiens, UniProt P51812); type: binding
[16] = molecular target: kinases (KINOMEscan panel) (Homo sapiens, UniProt Q9H093); type: binding
[17] = molecular target: kinases (KINOMEscan panel) (Homo sapiens, UniProt P04629); type: binding

kinases (KINOMEscan panel) (Homo sapiens, UniProt P51812), sequence (P51812 whole entry): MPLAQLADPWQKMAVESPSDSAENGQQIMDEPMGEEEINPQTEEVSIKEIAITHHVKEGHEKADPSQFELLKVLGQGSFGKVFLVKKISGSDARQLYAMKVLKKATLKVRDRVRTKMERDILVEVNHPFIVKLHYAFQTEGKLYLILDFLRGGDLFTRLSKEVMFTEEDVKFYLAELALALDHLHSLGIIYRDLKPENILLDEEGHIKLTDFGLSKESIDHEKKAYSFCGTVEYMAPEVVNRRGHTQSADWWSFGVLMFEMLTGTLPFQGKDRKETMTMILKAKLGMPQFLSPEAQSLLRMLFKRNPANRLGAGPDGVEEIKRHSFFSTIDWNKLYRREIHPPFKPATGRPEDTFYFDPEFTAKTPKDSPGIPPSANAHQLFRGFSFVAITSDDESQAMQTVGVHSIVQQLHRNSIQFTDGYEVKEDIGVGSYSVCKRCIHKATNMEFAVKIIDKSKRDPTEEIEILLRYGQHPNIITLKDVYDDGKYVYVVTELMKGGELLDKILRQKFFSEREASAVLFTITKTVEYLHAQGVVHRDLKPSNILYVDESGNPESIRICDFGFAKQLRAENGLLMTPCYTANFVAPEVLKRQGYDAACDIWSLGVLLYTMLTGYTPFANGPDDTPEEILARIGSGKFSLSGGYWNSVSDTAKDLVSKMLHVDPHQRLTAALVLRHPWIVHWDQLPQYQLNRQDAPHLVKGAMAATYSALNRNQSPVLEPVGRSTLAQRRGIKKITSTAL
kinases (KINOMEscan panel) (Homo sapiens, UniProt Q9H093), sequence (Q9H093 whole entry): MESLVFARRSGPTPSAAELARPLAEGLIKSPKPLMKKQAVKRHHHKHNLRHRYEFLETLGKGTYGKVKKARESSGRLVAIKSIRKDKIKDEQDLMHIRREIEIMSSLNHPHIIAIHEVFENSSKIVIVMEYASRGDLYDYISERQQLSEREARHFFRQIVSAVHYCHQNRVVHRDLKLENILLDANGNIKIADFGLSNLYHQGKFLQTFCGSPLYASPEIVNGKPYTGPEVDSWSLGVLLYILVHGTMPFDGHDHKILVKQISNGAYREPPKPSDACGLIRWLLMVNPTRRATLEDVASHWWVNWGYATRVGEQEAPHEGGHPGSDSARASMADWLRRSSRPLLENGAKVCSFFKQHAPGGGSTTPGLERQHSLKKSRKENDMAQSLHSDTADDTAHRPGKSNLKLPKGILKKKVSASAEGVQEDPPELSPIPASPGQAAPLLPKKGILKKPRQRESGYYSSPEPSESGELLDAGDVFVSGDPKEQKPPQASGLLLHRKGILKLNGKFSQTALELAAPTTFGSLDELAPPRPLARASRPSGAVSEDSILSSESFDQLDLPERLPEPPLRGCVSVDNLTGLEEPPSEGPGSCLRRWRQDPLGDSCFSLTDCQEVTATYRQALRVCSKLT
kinases (KINOMEscan panel) (Homo sapiens, UniProt P0C264), sequence (P0C264 whole entry): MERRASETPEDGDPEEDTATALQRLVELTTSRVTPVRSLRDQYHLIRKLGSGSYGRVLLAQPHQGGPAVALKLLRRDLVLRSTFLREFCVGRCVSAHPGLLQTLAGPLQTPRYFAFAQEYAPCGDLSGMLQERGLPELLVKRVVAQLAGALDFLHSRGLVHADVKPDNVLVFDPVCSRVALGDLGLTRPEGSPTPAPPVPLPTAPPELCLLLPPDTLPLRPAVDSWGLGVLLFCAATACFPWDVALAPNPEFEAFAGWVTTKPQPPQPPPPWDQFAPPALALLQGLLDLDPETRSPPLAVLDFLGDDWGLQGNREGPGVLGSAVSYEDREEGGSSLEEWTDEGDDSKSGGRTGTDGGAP
kinases (KINOMEscan panel) (Homo sapiens, UniProt P28482), sequence (P28482 whole entry): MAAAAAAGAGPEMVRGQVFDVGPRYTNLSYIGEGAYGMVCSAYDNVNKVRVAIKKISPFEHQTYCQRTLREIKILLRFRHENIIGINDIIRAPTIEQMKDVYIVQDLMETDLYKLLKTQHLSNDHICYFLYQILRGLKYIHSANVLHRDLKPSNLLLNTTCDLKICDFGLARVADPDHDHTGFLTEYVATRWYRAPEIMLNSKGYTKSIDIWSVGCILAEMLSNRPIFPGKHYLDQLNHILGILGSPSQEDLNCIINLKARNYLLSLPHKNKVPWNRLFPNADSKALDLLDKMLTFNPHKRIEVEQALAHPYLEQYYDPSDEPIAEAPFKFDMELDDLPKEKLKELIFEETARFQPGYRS
kinases (KINOMEscan panel) (Homo sapiens, UniProt P42679), sequence (P42679 whole entry): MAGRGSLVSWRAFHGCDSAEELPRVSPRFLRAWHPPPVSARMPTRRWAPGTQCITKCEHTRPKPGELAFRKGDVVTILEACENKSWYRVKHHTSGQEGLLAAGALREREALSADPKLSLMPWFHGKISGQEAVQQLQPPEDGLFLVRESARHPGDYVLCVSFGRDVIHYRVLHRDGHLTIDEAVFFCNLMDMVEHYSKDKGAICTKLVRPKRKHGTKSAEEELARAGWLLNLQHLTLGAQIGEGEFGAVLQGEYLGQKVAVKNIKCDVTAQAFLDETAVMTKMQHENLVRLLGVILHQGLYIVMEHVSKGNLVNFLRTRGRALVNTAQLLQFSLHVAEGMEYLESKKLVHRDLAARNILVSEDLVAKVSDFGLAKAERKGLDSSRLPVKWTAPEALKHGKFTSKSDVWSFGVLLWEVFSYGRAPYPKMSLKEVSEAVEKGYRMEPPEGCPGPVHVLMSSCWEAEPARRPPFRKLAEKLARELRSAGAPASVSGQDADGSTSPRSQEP
kinases (KINOMEscan panel) (Homo sapiens, UniProt P46734), sequence (P46734 whole entry): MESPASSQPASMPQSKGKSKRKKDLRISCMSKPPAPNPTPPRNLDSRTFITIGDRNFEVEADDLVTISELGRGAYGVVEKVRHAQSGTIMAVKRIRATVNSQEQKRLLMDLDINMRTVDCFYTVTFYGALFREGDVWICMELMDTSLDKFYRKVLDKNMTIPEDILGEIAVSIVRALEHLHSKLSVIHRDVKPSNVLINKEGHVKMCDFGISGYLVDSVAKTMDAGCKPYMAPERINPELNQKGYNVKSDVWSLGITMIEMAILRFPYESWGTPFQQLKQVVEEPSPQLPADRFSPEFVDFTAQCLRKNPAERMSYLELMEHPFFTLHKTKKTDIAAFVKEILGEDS
kinases (KINOMEscan panel) (Homo sapiens, UniProt Q02750), sequence (Q02750 whole entry): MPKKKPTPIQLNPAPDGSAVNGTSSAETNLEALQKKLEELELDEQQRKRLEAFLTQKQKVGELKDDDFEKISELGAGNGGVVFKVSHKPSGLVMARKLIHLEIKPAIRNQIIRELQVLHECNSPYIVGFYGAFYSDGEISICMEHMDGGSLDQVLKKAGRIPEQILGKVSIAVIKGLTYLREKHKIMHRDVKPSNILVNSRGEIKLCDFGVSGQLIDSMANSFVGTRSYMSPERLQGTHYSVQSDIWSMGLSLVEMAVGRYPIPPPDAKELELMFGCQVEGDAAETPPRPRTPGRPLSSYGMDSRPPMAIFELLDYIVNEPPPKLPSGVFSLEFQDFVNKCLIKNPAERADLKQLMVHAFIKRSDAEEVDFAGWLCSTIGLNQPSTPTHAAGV
kinases (KINOMEscan panel) (Homo sapiens, UniProt P23443), sequence (P23443 whole entry): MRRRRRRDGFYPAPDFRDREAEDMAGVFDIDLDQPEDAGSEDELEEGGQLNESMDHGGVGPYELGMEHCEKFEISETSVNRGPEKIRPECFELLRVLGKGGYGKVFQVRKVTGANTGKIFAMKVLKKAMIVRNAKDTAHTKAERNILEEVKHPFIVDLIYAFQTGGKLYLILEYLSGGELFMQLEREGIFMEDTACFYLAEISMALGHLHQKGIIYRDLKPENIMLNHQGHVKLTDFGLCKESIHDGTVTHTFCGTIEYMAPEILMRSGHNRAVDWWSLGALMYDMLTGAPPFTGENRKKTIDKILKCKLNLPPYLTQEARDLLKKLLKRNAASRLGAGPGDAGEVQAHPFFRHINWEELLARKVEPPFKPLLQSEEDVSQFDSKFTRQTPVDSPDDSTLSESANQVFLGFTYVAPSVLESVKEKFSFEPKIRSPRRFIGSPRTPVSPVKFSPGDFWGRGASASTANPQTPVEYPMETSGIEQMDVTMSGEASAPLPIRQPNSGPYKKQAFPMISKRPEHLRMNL
kinases (KINOMEscan panel) (Homo sapiens, UniProt Q16288), sequence (Q16288 32-839): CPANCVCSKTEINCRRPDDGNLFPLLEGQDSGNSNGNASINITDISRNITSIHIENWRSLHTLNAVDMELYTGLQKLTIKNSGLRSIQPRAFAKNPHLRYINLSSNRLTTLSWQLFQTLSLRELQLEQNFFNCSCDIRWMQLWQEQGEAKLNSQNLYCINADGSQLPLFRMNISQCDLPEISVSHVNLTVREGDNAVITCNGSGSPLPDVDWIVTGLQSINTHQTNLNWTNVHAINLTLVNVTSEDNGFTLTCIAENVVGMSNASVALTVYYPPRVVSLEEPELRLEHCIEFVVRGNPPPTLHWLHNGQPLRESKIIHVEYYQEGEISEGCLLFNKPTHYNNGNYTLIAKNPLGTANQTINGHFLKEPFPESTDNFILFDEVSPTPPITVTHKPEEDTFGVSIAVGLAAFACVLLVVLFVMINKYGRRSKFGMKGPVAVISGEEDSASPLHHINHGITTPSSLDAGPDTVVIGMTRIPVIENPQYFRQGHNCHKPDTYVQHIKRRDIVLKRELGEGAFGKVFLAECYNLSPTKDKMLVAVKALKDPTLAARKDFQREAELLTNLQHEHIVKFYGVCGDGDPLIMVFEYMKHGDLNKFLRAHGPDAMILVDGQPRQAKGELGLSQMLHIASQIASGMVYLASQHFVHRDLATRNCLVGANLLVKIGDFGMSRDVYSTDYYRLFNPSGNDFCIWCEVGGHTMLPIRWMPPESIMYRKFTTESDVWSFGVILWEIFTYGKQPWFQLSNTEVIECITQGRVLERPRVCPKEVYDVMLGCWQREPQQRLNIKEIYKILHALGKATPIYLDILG

For `Cc1cccc(-c2nc(Nc3ccc4ncsc4c3)c3ccccc3n2)n1` [NK140], the inhibition at 2 µM (PRKD2; 2µM, SH-SY5Y cells, Labeling Site Lys1, […]) was 51.7%, the “KiNativ binding of PRKD2 (in words)” value (PRKD2; SH-SY5Y cells treated 2 h) was “bound” and the “HTT fluorescent aggregates / cells bearing aggregates (in words)” value (GFP-Ex1HTT74Q) was “no reduction in fluorescent aggregates”.
In the case of `Cc1cccc(-c2nc(N(C)c3ccc4ncsc4c3)c3ccccc3n2)n1` [NK-161], the “KINOMEscan MYLK/MLCK” value [1] is reported as 8, the “KINOMEscan STK17B/DRAK2” value [2] is reported as 4 and the “KINOMEscan STK38L/NDR2” value [3] is reported as 0. The “KINOMEscan MAPK1/ERK2” value [4] was 6, the “KINOMEscan MATK/CTK” value [5] was 8 and the “KINOMEscan SBK3/SgK110” value [6] was 0. For the same compound, the “KINOMEscan MAP3K13/LZK” value [7] was 22, the “KINOMEscan NDR1/STK38” value [8] was 42 and the “KINOMEscan STK3/MST2” value [9] was 0. For the same compound, the “KINOMEscan MAP2K1/MEK1” value [10] was 32, the “KINOMEscan NTRK3/TRKC” value [11] was 29 and the “KINOMEscan TEK/TIE2” value [12] was 13. For the same compound, the “KINOMEscan RPS6KB1/S6K1” value [13] was 0, the “KINOMEscan MAP2K3/MEK3” value [14] was 0 and the “KINOMEscan RPS6KA3/RSK2(Kin.Dom.1-N-terminal)” value [15] was 5. For the same compound, the “KINOMEscan RPS6KA3/RSK2(Kin.Dom.2-C-terminal)” value [15] was 27, the “KINOMEscan NUAK2/SNARK” value [16] was 15 and the “KINOMEscan NTRK1/TRKA” value [17] was 22.
